Experimental findings from ChEMBL document CHEMBL1201862, “PubChem BioAssay data set” (2004) are described below.

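Method: 48-hour compound exposure of cells in 96-well plates, five concentrations, linear interpolation of endpoints. At the GI50, growth is halved.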 The source made the active and inactive calls. No stated cut-off is given here; in the data, active = GI50 up to about 1.1 µM and inactive = higher. Square brackets hold non-standard residues; d marks the D form. Peptide text beside a SMILES is read from it. * marks the point of attachment. Tyr(3-Br) = N[C@@H](Cc1ccc(O)c(Br)c1)C(=O)O; Boc = CC(C)(C)OC(=O)* Bounds are passed on as bounds.

What all share (assay): inhibition of tumour cell growth, NCI panel, 48 h
For test [1], the system named is CAKI-1.
Test [2] has as its system UO-31.
The test system of test [3] is SF-268.
The test system of test [4] is SF-539.
Test [5] has as its system MDA-N.
In test [6] the test system is RPMI-8226.
Test [7] deals with HCC 2998.
Test [8] relates to OVCAR-5.
In test [9] the test system is K562.
For test [10], the system named is A549.
In test [11] the test system is NCI-H23.
Test [12] concerns PC-3.
For test [13], the system named is 786-0.
Test [14] has as its system SK-MEL-2.
Test [15] deals with SK-MEL-28.
Test [16] relates to HCT-15.
The subject of test [17] is A498.
The subject of test [18] is COLO 205.
Test [19] relates to SK-MEL-5.
Test [20] has as its system RXF 393.

In the case of `COC(=O)[C@H](Cc1ccc(O)c(Br)c1)NC(=O)[C@H](Cc1ccc(O)cc1)NC(=O)OC(C)(C)C` (Boc-Tyr-[Tyr(3-Br)]-OMe), the GI50 in [1] was > 100 µM (inactive); in test [2] it was 29 µM (inactive); in test [3], 48.3 µM (inactive); in test [4] it was 28.7 µM (inactive); in [5], > 100 µM (inactive); in test [6], 28.4 µM (inactive). Further, the GI50 in test [7] is 31.6 µM (inactive); in test [8], > 100 µM (inactive); in test [9], > 100 µM (inactive); in test [10] it was > 100 µM (inactive); in test [11] it was 27.4 µM (inactive); in [12], > 100 µM (inactive). For the same compound, the GI50 in test [13] was 41.3 µM (inactive); in test [14], 37 µM (inactive); in [15], 34.6 µM (inactive); in test [16] it was 21.6 µM; in test [17] it was > 100 µM (inactive); in test [18], 39.9 µM (inactive).
For the compound `COC(=O)c1cc2c(o1)Sc1ccccc1NC2=O`, the GI50 in [1] is > 100 µM (inactive); in test [3] it was 31.8 µM (inactive); in [4] it was 29 µM (inactive); in [5], > 100 µM (inactive); in test [6] it was > 100 µM (inactive); in test [19], > 100 µM (inactive). Also, the GI50 in test [7], in test [8], in test [9], in [10], in test [11] and in test [12] was > 100 µM (inactive) throughout. Also, the GI50 is 87.1 µM (inactive) in test [13]; > 100 µM (inactive) in test [14]; > 100 µM (inactive) in [15]; more than 100 µM in [16]; > 100 µM (inactive) in [17]; > 100 µM (inactive) in test [18].
As to `Cc1cnc2c(c1)C(=O)N(c1ccc([N+](=O)[O-])cc1)S2(=O)=O`, the GI50 in [1] was > 100 µM (inactive); in test [2], > 100 µM (inactive); in [3] it was 77.8 µM (inactive); in test [4] it was 64.6 µM (inactive); in [5], 93.5 µM (inactive); in [6], 37.7 µM (inactive). In addition, the GI50 in test [19] was 71.3 µM (inactive); in test [7], > 100 µM (inactive); in [8] it was > 100 µM (inactive); in [10], 95.9 µM (inactive); in test [11], > 100 µM (inactive); in [12] it was 67.3 µM (inactive). In addition, the GI50 was > 100 µM (inactive) in test [13]; 5.47 µM (inactive) in test [14]; 74 µM (inactive) in [15]; 66.1 µM in [16]; 68.4 µM (inactive) in test [17]; > 100 µM (inactive) in test [18].
Regarding `CC(C)(O)/C=C\P(C)(=O)c1ccccc1` (configuration not stated), the GI50 is > 100 µM (inactive) in test [1]; > 100 µM (inactive) in test [3]; > 100 µM (inactive) in test [4]; > 100 µM (inactive) in [5]; 39.4 µM (inactive) in [6]; > 100 µM (inactive) in [19]. Moreover, the GI50 in [7], in test [8], in test [9], in test [10], in test [11] and in [12] was > 100 µM (inactive) in each case. The GI50 in test [13] was > 100 µM (inactive); in test [14] it was > 100 µM (inactive); in test [15], > 100 µM (inactive); in test [16] it was more than 100 µM; in [20], > 100 µM (inactive); in [18] it was > 100 µM (inactive).
In the case of `CC1(C)OC(C(C)(C)O)C(C(C)(C)O)O1` (configuration not stated), the GI50 in [1], in [2], in test [3], in test [4], in [5] and in [6] was > 100 µM (inactive) in each case. Moreover, the GI50 in [19], in [7], in test [8], in test [9], in [10] and in test [11] was > 100 µM (inactive) in each case. In addition, the GI50 in test [12] is > 100 µM (inactive); in test [13] it was > 100 µM (inactive); in [14] it was > 100 µM (inactive); in test [15], > 100 µM (inactive); in test [16], more than 100 µM; in test [20], 39 µM (inactive). Besides, in [18], the GI50 is > 100 µM (inactive).
For `COc1nc2ccc(COc3ccc(C(=O)O)cc3)cc2nc1OC`, the GI50 was 93.3 µM (inactive) in test [1]; > 100 µM (inactive) in test [2]; 82 µM (inactive) in test [3]; 45.5 µM (inactive) in test [4]; 38.2 µM (inactive) in test [5]; > 100 µM (inactive) in [19]. Also, the GI50 was 58.2 µM (inactive) in [7]; > 100 µM (inactive) in [8]; 67.1 µM (inactive) in test [9]; > 100 µM (inactive) in test [10]; > 100 µM (inactive) in [11]; 71.4 µM (inactive) in [12]. Besides, the GI50 in test [13] was > 100 µM (inactive); in test [14] it was > 100 µM (inactive); in [15] it was 66.4 µM (inactive); in test [16], 65.6 µM; in test [17], 95.7 µM (inactive); in test [18] it was > 100 µM (inactive).
Regarding `C[n+]1cn(C2=C([N-]S(=O)(=O)c3ccccc3)C(=O)c3ccccc3C2=O)c2ccccc21`, the GI50 was > 100 µM (inactive) in [1]; > 100 µM (inactive) in test [2]; 31.6 µM (inactive) in [3]; 31.4 µM (inactive) in test [4]; 12.8 µM (inactive) in test [5]; 71.3 µM (inactive) in test [6]. In addition, the GI50 was 6.08 µM (inactive) in test [19]; 18.9 µM (inactive) in [7]; > 100 µM (inactive) in [8]; 29.9 µM (inactive) in test [9]; 85.9 µM (inactive) in test [10]; 16 µM (inactive) in test [11]. In addition, the GI50 was 27.9 µM (inactive) in test [12]; 48.4 µM (inactive) in test [13]; 11.5 µM (inactive) in [14]; 36.1 µM (inactive) in test [15]; more than 100 µM in test [16]; 20.3 µM (inactive) in [20]. In test [18], the GI50 was 2.85 µM (inactive).
On to `CC1(C)OCC2OC3(c4nc(C#N)c(N)o4)OC(C)(C)OC3C2O1` (configuration not stated), for which the GI50 in [1], in [2], in test [3], in test [4], in test [5] and in test [6] was > 100 µM (inactive) throughout. Further, the GI50 in [19] was > 100 µM (inactive); in [7], > 100 µM (inactive); in [8] it was > 100 µM (inactive); in test [9], > 53.3 µM (inactive); in test [10], > 100 µM (inactive); in test [11], > 100 µM (inactive). The GI50 in [12] is > 100 µM (inactive); in test [13], > 100 µM (inactive); in [14], > 100 µM (inactive); in test [15] it was > 100 µM (inactive); in test [16], more than 100 µM; in test [17], > 100 µM (inactive). The GI50 in [18] was > 100 µM (inactive).
For `O=C(O)CN(CC(=O)O)C1CCCCC1N1CC(=O)OC(=O)C1` (configuration not stated), the GI50 in [1] was > 100 µM (inactive); in test [2] it was > 100 µM (inactive); in test [3], 61.7 µM (inactive); in test [4] it was > 100 µM (inactive); in test [5], > 100 µM (inactive); in test [6], > 100 µM (inactive). Further, the GI50 was > 100 µM (inactive) in [19]; 74.3 µM (inactive) in test [7]; > 100 µM (inactive) in test [8]; 71.8 µM (inactive) in [9]; > 100 µM (inactive) in test [10]; > 100 µM (inactive) in test [11]. For the same compound, the GI50 in test [12] was > 100 µM (inactive); in test [13], > 100 µM (inactive); in test [14], > 100 µM (inactive); in test [15], > 100 µM (inactive); in test [16] it was 95.9 µM; in [17], > 100 µM (inactive). For the same compound, the GI50 in [18] was > 100 µM (inactive).
As to `O=C1CCC[C@H]2O[C@@H](COCc3ccccc3)C[C@@H]12`, the GI50 in test [1], in test [2], in test [3], in test [4], in test [5] and in test [6] was > 100 µM (inactive) throughout. Also, the GI50 in test [19], in [8], in [9], in [10], in test [11] and in test [12] was > 100 µM (inactive) throughout. Also, the GI50 in test [13] was > 100 µM (inactive); in test [14] it was > 100 µM (inactive); in test [15], > 100 µM (inactive); in test [16], more than 100 µM; in test [17], > 100 µM (inactive); in test [18], > 100 µM (inactive).
Consider `N#C/C(=C\c1ccc(Cl)cc1)c1nc(-c2cc3ccccc3oc2=O)cs1`, for which the GI50 in [1] is > 100 µM (inactive); in test [2] it was 80.7 µM (inactive); in test [3], 34.8 µM (inactive); in [4], 39.8 µM (inactive); in [5], 59.8 µM (inactive); in test [6], > 100 µM (inactive). In addition, the GI50 in test [19] was 90.4 µM (inactive); in test [7] it was 57.5 µM (inactive); in [8], > 100 µM (inactive); in [9], > 100 µM (inactive); in [10], 86.5 µM (inactive); in test [12], > 100 µM (inactive). Besides, the GI50 in [13] was 30.3 µM (inactive); in test [14] it was > 100 µM (inactive); in [15], 95.9 µM (inactive); in test [16], more than 100 µM; in test [20], 83 µM (inactive); in test [18], > 100 µM (inactive).
